Reference: patent publication US20260373078A1 (NANJING QINLING PHARMACEUTICAL TECHNOLOGY COMPANY LIMITED, priority 2023, published 2026)

How the values were obtained:
[1] = Water solubility of wogonin / uniform solution with arginine; format: physicochemical; conditions: arginine 2%-10% (w/v)
Description: In addition, in order to ensure that a pH of the solution remains stable within a range of 7.0-11.0, an appropriate amount of citric acid may need to be added to the formulation, with a content of 0.01%-0.05% (w/v).

[2] = test system: human glioma cancer cells; conditions: Tsai et al., Int J Mol Sci. 2012; cited from earlier work

- content of wogonin at which a uniform solution may be obtained [1]: 0.1-5.0 % (w/v)
Structure (SMILES): COc1c(O)cc(O)c2c(=O)cc(-c3ccccc3)oc12 [Wogonin, wogonin]
- reactive oxygen species production and cell apoptosis [2]: induces reactive oxygen species production and cell apoptosis
